Reference: patent US9149465B2, “Isoxazolines as inhibitors of fatty acid amide hydrolase” (Infinity Pharmaceuticals, Inc., priority 2009, dated 2015)

target: T1, human FAAH (Homo sapiens, UniProt O00519); test: Inhibition of human FAAH (AMC arachidonoyl amide fluorescence assay); type: biochemical; details: inhibitor preincubated 30 minutes at room temperature; 20 μM AMC arachidonoyl amide; 4 hours; read-out: Activity (Ki, inhibitors of human FAAH)
T1 construct: host or cells: COS-7 cells, transient transfection; 13,000 g membrane fraction solubilised in 1% Triton X-100
T1 sequence (O00519 1-579): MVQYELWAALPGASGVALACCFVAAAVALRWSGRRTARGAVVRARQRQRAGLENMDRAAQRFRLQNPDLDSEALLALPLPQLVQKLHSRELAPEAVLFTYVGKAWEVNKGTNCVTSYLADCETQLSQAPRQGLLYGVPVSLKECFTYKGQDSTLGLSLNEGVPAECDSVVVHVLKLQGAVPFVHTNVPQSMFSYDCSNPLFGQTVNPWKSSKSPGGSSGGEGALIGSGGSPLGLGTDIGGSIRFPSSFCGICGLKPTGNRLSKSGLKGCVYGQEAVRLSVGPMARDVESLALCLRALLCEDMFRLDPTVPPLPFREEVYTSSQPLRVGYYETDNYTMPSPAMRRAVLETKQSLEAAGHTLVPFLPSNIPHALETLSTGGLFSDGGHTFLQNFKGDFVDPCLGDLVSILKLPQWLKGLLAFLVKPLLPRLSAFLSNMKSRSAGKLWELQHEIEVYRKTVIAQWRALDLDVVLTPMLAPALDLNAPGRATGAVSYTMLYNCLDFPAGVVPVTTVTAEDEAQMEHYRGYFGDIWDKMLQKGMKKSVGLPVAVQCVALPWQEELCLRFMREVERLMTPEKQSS
Method in brief: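 Solubilized membrane fraction from COS-7 cells transiently expressing human FAAH (0.05 mg/mL final) preincubated 30 min at room temperature with 3-fold serially diluted inhibitor, then reacted 4 h at room temperature with 20 μM AMC arachidonoyl amide. Stopped with α-ketoheterocycle; fluorescence read. Ki from single-site competitive fit, Km fixed at 12 μM.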

SMILES	Ki [µM]
c1ccc(OC2=NOC(c3ccc(Oc4ccccc4)cc3)C2)cc1 (single isomer, unassigned) [I-23]	≥ 1
Fc1ccc(OC2=NOC(c3ccc(Oc4ccccc4)cc3)C2)cc1 (single isomer, unassigned) [I-24]	≥ 1
Fc1cccc(OC2=NOC(c3ccc(Oc4ccccc4)cc3)C2)c1 (single isomer, unassigned) [I-25]	0.1 to 1
FC(F)(F)c1cccc(OC2=NOC(c3ccc(Oc4ccccc4)cc3)C2)c1 (single isomer, unassigned) [I-26]	≥ 1
N#Cc1ccc(OC2=NOC(c3ccc(Oc4ccccc4)cc3)C2)cc1 (single isomer, unassigned) [I-27]	≤ 0.1
N#Cc1ccccc1OC1=NOC(c2ccc(Oc3ccccc3)cc2)C1 (single isomer, unassigned) [I-28]	≥ 1
O=[N+]([O-])c1ccc(OC2=NOC(c3ccc(Oc4ccccc4)cc3)C2)cc1 (single isomer, unassigned) [I-29]	0.1 to 1
CS(=O)(=O)c1ccc(OC2=NOC(c3ccc(Oc4ccccc4)cc3)C2)cc1 (single isomer, unassigned) [I-30]	≤ 0.1
Cc1ccc(OC2=NOC(c3ccc(Oc4ccccc4)cc3)C2)cc1F (single isomer, unassigned) [I-31]	≥ 1
c1ccc(NC2=NOC(c3ccc(Oc4ccccc4)cc3)C2)cc1 (single isomer, unassigned) [I-32]	≥ 1
O=c1ccccn1C1=NOC(c2ccc(Oc3ccccc3)cc2)C1 (single isomer, unassigned) [I-33]	≥ 1
c1ccc(Oc2ccc(C3CC(n4cncn4)=NO3)cc2)cc1 (single isomer, unassigned) [I-34]	≥ 1
c1ccc(Oc2ccc(C3CC(n4cccn4)=NO3)cc2)cc1 (single isomer, unassigned) [I-35]	≥ 1
c1ccc(Oc2ccc(C3CC(Oc4ccncc4)=NO3)cc2)cc1 (single isomer, unassigned) [I-36]	≥ 1
c1ccc(Oc2ccc(C3CC(Oc4cccnc4)=NO3)cc2)cc1 (single isomer, unassigned) [I-37]	≤ 0.1
COC(=O)c1cncc(OC2=NOC(c3ccc(Oc4ccccc4)cc3)C2)c1 (single isomer, unassigned) [I-39]	≤ 0.1

SMILES	Ki [µM]
Cc1ccc(OC2=NOC(c3ccc(Oc4ccccc4)cc3)C2)cn1 (single isomer, unassigned) [I-40]	≤ 0.1
c1ccc(Oc2ccc(C3CC(Oc4cncnc4)=NO3)cc2)cc1 (single isomer, unassigned) [I-41]	≤ 0.1
c1ccc(Oc2ccc(C3CC(Oc4cnc5ccccc5c4)=NO3)cc2)cc1 (single isomer, unassigned) [I-42]	≤ 0.1
Fc1cncc(OC2=NOC(c3ccc(Oc4ccccc4)cc3)C2)c1 (single isomer, unassigned) [I-43]	≤ 0.1
Cn1ccc2cc(OC3=NOC(c4ccc(Oc5ccccc5)cc4)C3)cnc21 (single isomer, unassigned) [I-44]	0.1 to 1
COC1=NOC(c2ccc(Oc3ccccc3)cc2)C1 (single isomer, unassigned) [I-45]	≥ 1
COC(=O)c1cncc(OC2=NOC(c3ccc(OC(F)(F)F)cc3)C2)c1 (single isomer, unassigned) [I-46]	0.1 to 1
NC(=O)c1cncc(OC2=NOC(c3ccc(Oc4ccccc4)cc3)C2)c1 (single isomer, unassigned) [I-47]	0.1 to 1
BrC1=NO[C@H](Cc2ccccc2)C1 (single isomer, unassigned) [I-48]	≥ 1
BrC1=NOC(CCc2ccccc2)C1 (single isomer, unassigned) [I-49]	0.1 to 1
BrC1=NOC(CCOc2ccccc2)C1 (single isomer, unassigned) [I-50]	0.1 to 1
BrC1=NOC(CCCOc2ccccc2)C1 (single isomer, unassigned) [I-51]	≤ 0.1
BrC1=NOC(COCCc2ccccc2)C1 (single isomer, unassigned) [I-52]	0.1 to 1
CC1C(Br)=NOC1c1ccc(Oc2ccccc2)cc1 (centres unmarked) [I-78]	≤ 0.1
CC1C(Br)=NOC1c1ccc(Oc2ccccc2)cc1 (centres unmarked) [I-82]	0.1 to 1
Nc1ccc(OC2=NOC(c3ccc(Oc4ccccc4)cc3)C2)cn1 (centres unmarked) [I-93]	≤ 0.1
